From US6617325B1, “Biphenyl derivatives, production thereof and uses as medicines” (Boehringer Ingelheim Pharma KG, priority 1999, dated 2003) come the findings set out here.

Each structure is given as a SMILES string.

In general, melting point refers to the temperature of the solid-liquid transition. `CCC(CCCN1CCC(NC(=O)c2ccccc2-c2ccc(C(F)(F)F)cc2)CC1)(CC(=O)OC)c1ccccc1` (stereo not shown) [Example 2, Methyl 2-ethyl-2-phenyl-5-{4-[(4′-trifluoromethyl-biphenyl-2-carbonyl)-amino]-piperidin-1-yl}-pentanecarboxylate] gave a melting point of 110 °C.
